Reference: patent publication US4518597A, “Substituted benzoxazin-2-ones and pharmaceutical compositions containing them” (Dr. Karl Thomae GmbH, priority 1982, dated 1985)

Tests used:
[1] = test system: primary hemostasis; experiment: Determination of the prolongation of bleeding time in conscious mice; format: in vivo; conditions: Mus musculus, 1 h, 10 mg/kg oral, one hour, as compared to a control group, read-out: Prolongation of Bleeding Time after One Hour (%)
Method: Since, in the event of injury, the first rapid cessation of bleeding is effected by the adhesion and aggregation of the thrombocytes at the vessel wall, the functioning of the thrombocytes can easily be determined by measuring the bleeding time with a standardized injury. The normal bleeding time in humans is between 1 and 3 minutes, assuming that there are sufficient intact, effective thrombocytes. If the number of thrombocytes is normal and the bleeding time is prolonged, this signifies an abnormality in the thrombocytes. This is found in some inborn errors of thrombocyte function. If, on the other hand, it is desired to prevent spontaneous aggregation of the thrombocytes and occlusion in the arterial system by drugs, successful therapy affecting the thrombocytes should prolong the bleeding time. Therefore, with use of an antithrombotic substance, a prolongation of the bleeding time is expected. Also, there should be a normal coagulation time since the plasma coagulation system is not affected.
To measure the bleeding time, 10 mg/kg of the test compounds were administered orally to conscious mice. After one hour, 0.5 mm of the tip of the tail of each mouse was cut off, and droplets of blood were gently removed with filter paper every 30 seconds. The number of drops of blood thus obtained gives a bleeding time (5 animals per experiment).
The results in the following table represent the prolongation of the bleeding time in percent as compared to a control group.

[2] = test system: phosphodiesterase (PDE) from human blood platelets; experiment: PDE inhibition (phosphodiesterase from human blood platelets, 3H-cAMP hydrolysis); format: biochemical; conditions: human platelet PDE, 1 μmol/liter 3H-cAMP, pH 7.4, 15 minutes at 37° C.
Method: cAMP is hydrolyzed to AMP by phosphodiesterase (PDE) from various sources, including blood platelets.
The phosphodiesterase used was prepared by centrifugal extraction at 10,000 g from human blood platelets which were frozen in water and then thawed.
A quantity of 0.3 ml of a mixture containing 0.1 mol/liter of […] (pH 7.4), 3 mmols/liter of magnesium chloride, 1 mmol/liter of AMP, 1 μmol/liter of ^3 H-cAMP (specific activity about 10 MBq/μmol), PDE, and the inhibitor under investigation (water in the case of the control) was incubated for 15 minutes at 37° C. […] From a comparison of the results for inhibitor and control cases, the concentration of the respective inhibitor necessary for a 50% inhibiting effect (IC50) was calculated.

[3] = test system: mice; experiment: Acute toxicity after oral administration of a single dose; format: in vivo; conditions: observation period 14 days; for Approximate Acute Toxicity: groups of ten, single oral dose; for animals died: single oral dose 1000 mg
Method: The acute toxicity of the test compounds was determined, as a guide, in groups of ten mice, after oral administration of a single dose (observation period: 14 days): […]

[4] = test system: thrombocyte aggregation; experiment: Antithrombotic activity: collagen-induced thrombocyte aggregation in platelet-rich plasma (Born and Cross); format: cell-based; conditions: Homo sapiens, 50% change in optical density, ten minutes at 37° C.
Method: The thrombocyte aggregation is determined in platelet-rich plasma from healthy test subjects using the method of Born and Cross [J. Physiol. 170, 397 (1964)]. To inhibit coagulation, the blood is mixed with 3.14 percent of sodium citrate in a volume ratio of 1:10.
The pattern of the decrease in optical density of the platelet suspension after administration of the aggregation-initiating substance is measured photometrically and recorded. The speed of aggregation is deduced from the angle of inclination of the density curve. The point of the curve where there is the most light transmittance is used to calculate the optical density.
The quantity of collagen used is as small as possible, but sufficient to produce an irreversible reaction curve. The standard commercial collagen made by Hormonchemie of Munich is used. Before the collagen is administered, the plasma is incubated with the substance for ten minutes at 37° C.
From the measurements obtained, and EC50 is obtained graphically, relating to a 50% change in optical density by way of an inhibition of aggregation.

Compound	change in vivo at 10 mg/kg [1]	IC50 [2]	Approximate Acute Toxicity [3]	animals died [3]	EC50 [4]
CC(=O)N=S(=O)(CCCCOc1ccc2c(c1)C(C)(C)OC(=O)N2)c1cc(C(C)(C)C)c(O)c(C(C)(C)C)c1 (centres unmarked) [S, 6-[4-(3,5-di-tert.butyl-4-hydroxy-N-acetyl-phenylsulfoximino)-butoxy]-4,4-dimethyl-4H-3,1-benzoxazin-2-one]	> 226%	77 nM	1000 mg	0 out of 10 animals died	2200 nM
CC1(C)OC(=O)Nc2ccc(OCCCCS(=N)(=O)c3ccc(F)cc3)cc21 (centres unmarked) [H, 6-[4-(4-fluoro-phenylsulfoximino)-butoxy]-4,4-dimethyl-4H-3,1-benzoxazin-2-one]	> 211%	180 nM	–	–	320 nM
Cc1cc(S(=N)(=O)CCCCOc2ccc3c(c2)C(C)(C)OC(=O)N3)ccc1Br (centres unmarked) [M, 6-[4-(4-bromo-3-methyl-phenylsulfoximino)-butoxy]-4,4-dimethyl-4H-3,1-benzoxazin-2-one]	100%	66 nM	–	–	250 nM
Cc1ccc([S+]([O-])CCCCOc2ccc3c(c2)C(C)(C)OC(=O)N3)cc1 (centres unmarked) [D, 6-[4-(4-methyl-phenylsulfinyl)-butoxy]-4,4-dimethyl-4H-3,1-benzoxazin-2-one]	> 250%	210 nM	1000 mg	0 out of 10 animals died	330 nM
CC1(C)OC(=O)Nc2ccc(OCCCCS(=N)(=O)c3ccc(O)cc3)cc21 (centres unmarked) [B, 6-[4-(4-hydroxy-phenylsulfoximino)-butoxy]-4,4-dimethyl-4H-3,1-benzoxazin-2-one]	> 263%	230 nM	1000 mg	0 out of 10 animals died	280 nM
CC1(C)OC(=O)Nc2ccc(OCCCC[S+]([O-])c3ccc(C4CCCCC4)cc3)cc21 (centres unmarked) [E, 6-[4-(4-cyclohexyl-phenylsulfinyl)-butoxy]-4,4-dimethyl-4H-3,1-benzoxazin-2-one]	46%	78 nM	1000 mg	0 out of 10 animals died	320 nM
CC1(C)OC(=O)Nc2ccc(OCCCC[S+]([O-])c3ccc(Br)cc3)cc21 (centres unmarked) [L, 6-[4-(4-bromo-phenylsulfinyl)-butoxy]-4,4-dimethyl-4H-3,1-benzoxazin-2-one]	> 266%	240 nM	–	–	420 nM
CC1(C)OC(=O)Nc2ccc(OCCCCS(=N)(=O)c3ccc(Cl)c(Cl)c3)cc21 (centres unmarked) [F, 6-[4-(3,4-dichloro-phenylsulfoximino)-butoxy]-4,4-dimethyl-4H-3,1-benzoxazin-2-one]	> 275%	42 nM	–	–	210 nM
COc1ccc(S(=N)(=O)CCCCOc2ccc3c(c2)C(C)(C)OC(=O)N3)cc1 (centres unmarked) [C, 6-[4-(4-methoxy-phenylsulfoximino)-butoxy]-4,4-dimethyl-4H-3,1-benzoxazin-2-one]	> 241%	130 nM	1000 mg	0 out of 10 animals died	270 nM
CC1(C)OC(=O)Nc2ccc(OCCCCS(=N)(=O)c3ccc(-c4ccccc4)cc3)cc21 (centres unmarked) [Q, 6-[4-(4-biphenylyl-sulfoximino)-butoxy]-4,4-dimethyl-4H-3,1-benzoxazin-2-one]	128%	6.8 nM	–	–	250 nM
Cc1ccc(S(=N)(=O)CCCCOc2cc3c(cc2Br)NC(=O)OC3(C)C)cc1 (centres unmarked) [T, 7-bromo-4,4-dimethyl-6-[4-(4-methyl-phenylsulfoximino)-butoxy]-4H-3,1-benzoxazin-2-one]	60%	1 nM	1000 mg	0 out of 10 animals died	69 nM
COc1ccc(S(=O)(CCCCOc2ccc3c(c2)C(C)(C)OC(=O)N3)=NC(C)=O)cc1OC (centres unmarked) [R, 6-[4-(3,4-dimethoxy-N-acetyl-phenylsulfoximino)-butoxy]-4,4-dimethyl-4H-3,1-benzoxazin-2-one]	> 241%	710 nM	1000 mg	0 out of 10 animals died	2300 nM
Cc1ccc(S(=N)(=O)CCCCOc2ccc3c(c2)C(C)(C)OC(=O)N3)cc1 (centres unmarked) [N, 6-[4-(4-methyl-phenylsulfoximino)-butoxy]-4,4-dimethyl-4H-3,1-benzoxazin-2-one]	63%	65 nM	–	–	220 nM
Cc1ccc([S+]([O-])CCCCOc2cc3c(cc2Cl)NC(=O)OC3(C)C)cc1 (centres unmarked) [U, 7-chloro-4,4-dimethyl-6-[4-(4-methyl-phenylsulfinyl)-butoxy]-4H-3,1-benzoxazin-2-one]	> 230%	3.4 nM	1000 mg	0 out of 10 animals died	28 nM
COc1ccc(S(=N)(=O)CCCCOc2ccc3c(c2)C(C)(C)OC(=O)N3)cc1OC (centres unmarked) [O, 6-[4-(3,4-dimethoxy-phenylsulfoximino)-butoxy]-4,4-dimethyl-4H-3,1-benzoxazin-2-one]	> 227%	200 nM	–	–	270 nM
CC1(C)OC(=O)Nc2ccc(OCCCCS(=N)(=O)c3ccc(Br)cc3)cc21 (centres unmarked) [Compound I, 6-[4-(4-bromo-phenylsulfoximino)-butoxy]-4,4-dimethyl-4H-3,1-benzoxazin-2-one]	> 220%	110 nM	–	–	330 nM
O=C1Nc2ccc(OCCCC[S+]([O-])c3ccccc3)cc2CO1 (centres unmarked) [K, 6-(4-phenylsulfinyl-butoxy)-4H-3,1-benzoxazin-2-one]	121%	1500 nM	–	–	1900 nM
COc1cccc(S(=N)(=O)CCCCOc2ccc3c(c2)C(C)(C)OC(=O)N3)c1 (centres unmarked) [G]	> 245%	77 nM	–	–	270 nM
CC1(C)OC(=O)Nc2ccc(OCCCC[S+]([O-])c3ccc(Cl)cc3)cc21 (centres unmarked) [Compound A, 6-[4-(4-chloro-phenylsulfinyl)-butoxyl]-4,4-dimethyl-4H-3,1-benzoxazin-2-one]	> 248%	240 nM	1000 mg	0 out of 10 animals died	340 nM
CC1(C)OC(=O)Nc2cc(Br)c(OCCCC[S+]([O-])c3ccc(Cl)c(Cl)c3)cc21 (centres unmarked) [V, 7-bromo-6-[4-(3,4-dichloro-phenylsulfinyl)-butoxy]-4,4-dimethyl-4H-3,1-benzoxazin-2-one]	100%	3.8 nM	1000 mg	0 out of 10 animals died	44 nM
CC1(C)OC(=O)Nc2ccc(OCCCC[S+]([O-])c3cc(Br)c(N)c(Br)c3)cc21 (centres unmarked) [P, 6-[4-(4-amino-3,5-dibromo-phenylsulfinyl)-butoxy]-4,4-dimethyl-4H-3,1-benzoxazin-2-one]	73%	56 nM	–	–	550 nM
